Results: publication PMC10823514, “Target Identification of a Class of Pyrazolone Protein Aggregation Inhibitor Therapeutics for Amyotrophic Lateral Sclerosis” (ACS Central Science, 2023)
pEC50: −log10 of the molar value.

Columns and labels:
[1] = target: T1, 25 kDa protein band in PC12 SOD1^G93A cells (Rattus norvegicus, UniProt P62260); experiment: Competition of PRAPP photoaffinity labeling of the 25 kDa band in PC12-SOD1^G93A cells; assay type: binding; settings: 30 μM PRAPP
T1 construct: we identified a 25 kDa covalently modified protein band in the PC12 SOD1^G93A cell line; endogenous in cells; host or cells: PC12-SOD1^G93A cells (live-cell UV photolabeling, then lysis)
T1 sequence (P62260 1-255): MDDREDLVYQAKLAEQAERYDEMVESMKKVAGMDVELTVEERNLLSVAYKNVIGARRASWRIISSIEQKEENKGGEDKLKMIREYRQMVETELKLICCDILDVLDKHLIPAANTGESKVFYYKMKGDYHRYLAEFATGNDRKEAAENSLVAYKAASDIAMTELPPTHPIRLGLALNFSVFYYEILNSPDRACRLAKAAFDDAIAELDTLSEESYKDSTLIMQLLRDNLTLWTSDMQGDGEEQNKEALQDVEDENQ
Procedure: PC12-SOD1^G93A cells were cultured and grown to 90% confluency (in 6-well plates) and washed once with PBS followed by the addition of serum medium containing the appropriate analyte at the indicated concentrations. Three incubation scenarios were studied (at 37 °C): Scenario 1) 12 h preincubation with PRAPP in the absence of MG-132; Scenario 2) 12 h preincubation with PRAPP in the absence of MG-132 followed by an additional 24 h incubation (control); and Scenario 3) 12 h preincubation with PRAPP followed by the addition of MG-132 (100 nM) and an additional 24 h incubation. After incubation, the medium was discarded and cells were washed with PBS (1 × 300 μL). Fresh serum-free medium was added, and the cells were irradiated with UV light (312 nm, 120 V, 60 Hz, 0.2 A [Spectroline model EB-160C], distance ∼4 cm) for 15 min. The medium was removed, cells were washed with PBS (2 × 500 μL), and 200 μL of lysis buffer containing Tris HCl (25 mM, pH 7.6), NaCl (150 mM), 1% NP40, 1% sodium deoxycholate, 0.1% SDS, and protease inhibitor cocktail (Sigma-Aldrich, 1:100 v/v) was added to each well. Complete lysis was observed by a microscope after 10 min at 4 °C with agitation. Each lysate was centrifuged at 4 °C for 5 min at 13,000 rpm, and the resulting supernatant was concentrated with a centrifugal filter (Amicon Ultra Centrifugal Filters 3K cutoff, Millipore), normalized to 1.0 mg/mL by the Bradford assay, and analyzed immediately or stored at −80 °C for subsequent analysis.
In a darkened (wrapped with aluminum foil) Eppendorf tube, each lysate (30 μL [30 μg]) was incubated with 10 μL of the freshly prepared “click” premix containing CuSO4 (5 mM), sodium ascorbate (5 mM), TBTA (200 μM), and N3–Alexa-647 (50 μM) were added to PBS (50 mM, pH 7.4). The corresponding final concentrations within the lysate click incubation were: CuSO4 (1.25 mM), sodium ascorbate (1.25 mM), TBTA (50 μM), and N3–Alexa-647 (12.5 μM). The mixture was vortexed briefly and incubated for 1.5 h at 37 °C in the dark. NuPAGE LDS sample loading buffer (4 × 13 μL) was added, and the mixture was denatured in boiling water for 10 min. SDS-PAGE was performed on Novex Bis-Tris gel 4–12% with MES SDS running buffer (90 V constant for 30 min followed by 100 V for 90 min; load volume = 25 μL). Protein standards that gave appropriate visible and fluorescent bands for our application included the BioRad Precision Plus All Blue Protein Standard and Novex Pre-Stained Protein Standard. In-gel fluorescence was monitored (excitation λ = 635 nm; emission λ = 670 nm) using a Typhoon 9400 (GE Healthcare) fluorimager. Densitometric analysis and image refinement were carried out as needed using ImageJ software (NIH, open source). The contrast and brightness of images were modified using ImageJ and/or Microsoft Word to enhance visualization for publication purposes.

[2] = target: T2, 14-3-3-G (Homo sapiens, UniProt P61981); experiment: Fluorescent thermal shift assay (FTSA) with 14-3-3-G; assay type: binding; settings: 0 and 100 μM P2
T2 construct: purchased Abchem (so in the source)
T2 sequence (P61981 1-247): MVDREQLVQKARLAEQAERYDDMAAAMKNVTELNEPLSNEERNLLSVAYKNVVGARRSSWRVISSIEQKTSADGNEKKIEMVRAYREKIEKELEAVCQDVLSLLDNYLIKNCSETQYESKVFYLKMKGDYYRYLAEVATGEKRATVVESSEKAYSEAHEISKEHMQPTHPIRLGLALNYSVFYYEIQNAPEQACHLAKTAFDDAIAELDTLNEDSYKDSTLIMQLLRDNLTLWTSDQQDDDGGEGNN
Procedure: His-tagged 14-3-3-E, B, and H plasmids were purchased from Addgene (plasmid ID# 31562, 39128, and 38814, respectively). E. coli (BL21) were transformed with extracted plasmids via heat shock and plated on selected media. Individual colonies were selected, grown, and sequenced to confirm gene presence. 1 L cultures were grown to an OD600 of 0.6 at 37 °C and 220 rpm. Protein expression was induced with 1 mM IPTG and expressed for 12 h at 100 rpm and room temperature (approximately 25 °C). Cells were spun down at 4000 rpm for 15 min at 4 °C and resuspended in lysis buffer containing 50 mM Tris (7.4), 150 mM NaCl, 0.08% DDM, 5 mM imidazole, and 5% glycerol (with an EDTA-free complete mini protease inhibitor cocktail). Cells were lysed via sonication, and the lysate was separated from cell debris by centrifugation at 15,000 rpm, 4 °C, for 45 min. The His-tagged protein was purified using QIAGEN Ni-NTA superflow columns, and the His-tag was removed with TEV protease. His-tag-removed proteins were further purified by size exclusion chromatography. His tag removal and size exclusion chromatography purification were done at the Northwestern University Protein Production core. […]
All of the FTSA experiments were conducted in HEPES buffer (60 mM HEPES, 150 mM NaCl, pH 7.4). […] The fluorescence was measured on a Bio-Rad CFX384 real-time PCR instrument.

## O=c1cc(COc2cc(Cl)cc(Cl)c2)[nH][nH]1 [P2]
[1]
  competitor to PRAPP ratio at complete disappearance of the band: 6
[1]; scenario 1, n = 2, read-out: EC50 for the competition with PRAPP (25 kDa band intensity)
  pEC50: 4.96
[2]
  binding (Tm shift): no binding
